Experimental data as given in publication PMC12155096 (International Journal of Molecular Sciences, 2025).
Where a name gives a salt, the structure may show the parent alone. Read-outs that look alike come from different tables or passages of the source.

Experiments:
human CYP1A2 [1] = target: T1, human CYP1A2 (Homo sapiens, UniProt P05177); assay: biochemical
T1 sequence (P05177 1-516): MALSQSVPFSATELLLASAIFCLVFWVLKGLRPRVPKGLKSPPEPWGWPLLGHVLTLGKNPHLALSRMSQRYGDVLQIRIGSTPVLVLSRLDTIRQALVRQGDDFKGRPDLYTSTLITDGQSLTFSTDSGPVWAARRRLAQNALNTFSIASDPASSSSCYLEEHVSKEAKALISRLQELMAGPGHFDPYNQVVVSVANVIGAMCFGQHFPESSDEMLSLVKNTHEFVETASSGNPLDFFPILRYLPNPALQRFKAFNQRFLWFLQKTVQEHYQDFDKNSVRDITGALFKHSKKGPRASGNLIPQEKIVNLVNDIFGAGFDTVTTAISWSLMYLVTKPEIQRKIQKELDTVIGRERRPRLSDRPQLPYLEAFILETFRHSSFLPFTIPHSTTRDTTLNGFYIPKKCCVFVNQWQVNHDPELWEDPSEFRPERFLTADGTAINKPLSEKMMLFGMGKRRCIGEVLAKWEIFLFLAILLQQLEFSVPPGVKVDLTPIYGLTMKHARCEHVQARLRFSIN

human CYP2C9 [2] = target: T2, human CYP2C9 (Homo sapiens, UniProt P11712); assay: biochemical
CYP3A4 = CYP3A4 (Homo sapiens, UniProt P08684)
human CYP2C19 [3] = target: T3, human CYP2C19 (Homo sapiens, UniProt P33261)
human CYP2D6 = human CYP2D6 (Homo sapiens, UniProt P10635)
human CYP1A2 [4] = target: T1, human CYP1A2
human CYP2C19 [5] = target: T3, human CYP2C19; assay: biochemical
human CYP2C9 [6] = target: T2, human CYP2C9; conditions: human
[7] = CYP1A2 AC50 (half-maximal activity concentration)
[8] = CYP2C9 AC50 (half-maximal activity concentration)
[9] = CYP1A2 IC50 (half-maximal inhibitory concentration)
[10] = CYP2C9 IC50 (half-maximal inhibitory concentration)
[11] = CYP2C19 IC50 (half-maximal inhibitory concentration)

Sequence of human CYP2D6 (P10635 whole entry): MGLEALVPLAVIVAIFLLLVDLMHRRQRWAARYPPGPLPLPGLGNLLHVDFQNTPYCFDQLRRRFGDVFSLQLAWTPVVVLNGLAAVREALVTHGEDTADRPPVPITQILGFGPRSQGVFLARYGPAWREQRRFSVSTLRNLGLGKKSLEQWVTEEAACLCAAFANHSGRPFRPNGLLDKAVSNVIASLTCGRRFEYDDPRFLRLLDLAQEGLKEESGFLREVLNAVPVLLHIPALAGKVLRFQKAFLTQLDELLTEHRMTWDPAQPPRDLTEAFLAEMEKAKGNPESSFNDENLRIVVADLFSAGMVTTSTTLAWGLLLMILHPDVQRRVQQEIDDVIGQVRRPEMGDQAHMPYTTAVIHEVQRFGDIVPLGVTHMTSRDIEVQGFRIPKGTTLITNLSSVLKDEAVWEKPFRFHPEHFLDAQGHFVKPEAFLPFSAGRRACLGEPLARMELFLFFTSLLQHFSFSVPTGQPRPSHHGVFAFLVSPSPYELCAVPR
T3 sequence (P33261 whole entry): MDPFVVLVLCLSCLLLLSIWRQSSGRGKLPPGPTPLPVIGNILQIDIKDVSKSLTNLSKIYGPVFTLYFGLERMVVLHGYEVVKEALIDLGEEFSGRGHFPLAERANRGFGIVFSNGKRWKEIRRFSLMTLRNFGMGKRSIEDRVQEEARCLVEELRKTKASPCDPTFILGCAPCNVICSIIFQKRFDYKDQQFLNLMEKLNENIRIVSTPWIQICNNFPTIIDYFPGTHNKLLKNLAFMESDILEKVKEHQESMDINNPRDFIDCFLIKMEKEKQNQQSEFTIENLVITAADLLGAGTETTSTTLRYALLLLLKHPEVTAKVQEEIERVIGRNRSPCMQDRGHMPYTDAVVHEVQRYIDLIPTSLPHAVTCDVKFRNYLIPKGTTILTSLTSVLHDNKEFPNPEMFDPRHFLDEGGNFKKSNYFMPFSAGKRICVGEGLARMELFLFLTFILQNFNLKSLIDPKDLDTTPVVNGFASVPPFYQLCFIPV
T2 sequence (P11712 whole entry): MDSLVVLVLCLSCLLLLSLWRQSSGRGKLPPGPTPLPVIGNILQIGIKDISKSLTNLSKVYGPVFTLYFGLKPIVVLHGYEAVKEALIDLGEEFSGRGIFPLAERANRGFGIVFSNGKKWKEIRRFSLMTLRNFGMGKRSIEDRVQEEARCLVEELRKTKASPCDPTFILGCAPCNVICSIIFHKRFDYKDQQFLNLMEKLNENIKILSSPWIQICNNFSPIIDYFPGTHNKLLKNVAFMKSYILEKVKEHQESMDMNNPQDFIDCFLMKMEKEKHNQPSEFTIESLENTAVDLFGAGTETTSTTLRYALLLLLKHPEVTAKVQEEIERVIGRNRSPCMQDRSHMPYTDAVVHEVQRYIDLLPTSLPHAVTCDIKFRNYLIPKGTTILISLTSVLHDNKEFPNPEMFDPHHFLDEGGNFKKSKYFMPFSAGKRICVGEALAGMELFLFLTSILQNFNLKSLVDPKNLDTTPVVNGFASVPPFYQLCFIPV
Sequence of CYP3A4 (P08684 whole entry): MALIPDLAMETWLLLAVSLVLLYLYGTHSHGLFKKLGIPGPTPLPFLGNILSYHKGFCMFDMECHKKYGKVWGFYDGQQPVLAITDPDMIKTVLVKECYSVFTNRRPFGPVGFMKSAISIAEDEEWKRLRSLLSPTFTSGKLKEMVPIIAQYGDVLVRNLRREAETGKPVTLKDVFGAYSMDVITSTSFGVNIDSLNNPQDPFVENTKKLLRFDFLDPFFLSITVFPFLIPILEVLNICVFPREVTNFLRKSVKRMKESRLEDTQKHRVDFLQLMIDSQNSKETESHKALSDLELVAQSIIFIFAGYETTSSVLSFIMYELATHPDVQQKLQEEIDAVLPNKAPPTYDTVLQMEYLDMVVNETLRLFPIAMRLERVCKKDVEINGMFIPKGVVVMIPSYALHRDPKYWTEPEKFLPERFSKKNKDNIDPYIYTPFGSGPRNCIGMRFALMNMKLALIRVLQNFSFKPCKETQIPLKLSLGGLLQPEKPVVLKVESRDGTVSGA

Compound: CC(C)OC(=O)C(C)(C)Oc1ccc(C(=O)c2ccc(Cl)cc2)cc1 [Fenofibrate]
- AC50 (human CYP1A2 [1]; [7]): 19.9 µM
- AC50 (human CYP2C9 [2]; [8]): 3.17 µM

Compound: O=C(O)Cc1sc(-c2ccccc2)nc1-c1ccc(Cl)cc1 [Fentiazac]
- AC50 (human CYP1A2 [1]; [7]): 24 µM
- AC50 (human CYP2C9 [2]; [8]): 6.24 µM

Compound: CNCCC(Oc1ccc(C(F)(F)F)cc1)c1ccccc1 (stereo not shown) [Fluoxetine hydrochloride]
- IC50 (human CYP1A2 [1]; [9]): 20.9 µM
- IC50 (human CYP2C9 [2]; [10]): 34.2 µM

Compound: NS(=O)(=O)c1cc2c(cc1Cl)NCNS2(=O)=O [Hydrochlorothiazide]
- CYP3A4 AC50 (half-maximal activity concentration) (CYP3A4): Inactive
- CYP2C19 AC50 (half-maximal activity concentration) (human CYP2C19 [3]): Inactive
- CYP2D6 AC50 (half-maximal activity concentration) (human CYP2D6): Inactive

Compound: CC(C)Oc1ccc2c(=O)c(-c3ccccc3)coc2c1 [Ipriflavone]
- AC50 (human CYP1A2 [1]; [7]): 11.6 µM
- AC50 (human CYP2C9 [2]; [8]): 20.1 µM

Compound: Cc1cc2c(cc1S(N)(=O)=O)S(=O)(=O)CCC2 [Meticrane]
- CYP3A4 AC50 (half-maximal activity concentration) (CYP3A4): Inactive
- AC50 (human CYP2C9 [2]): 8.15 ± 1.47 µM
- CYP1A2 AC50 (half-maximal activity concentration) (human CYP1A2 [4]): Inactive
- CYP2C19 AC50 (half-maximal activity concentration) (human CYP2C19 [3]): Inactive
- CYP2D6 AC50 (half-maximal activity concentration) (human CYP2D6): Inactive

Compound: CCOc1cc(N)c(Cl)cc1C(=O)NCC1CN(Cc2ccc(F)cc2)CCO1 (stereo not shown) [Mosapride citrate]
- IC50 (human CYP1A2 [1]; [9]): 1.14 µM
- IC50 (human CYP2C19 [5]; [11]): 9 µM

Compound: COc1ccnc2c1CCCCC2[S+]([O-])c1nc2ccccc2[nH]1 (stereo not shown) [Nepaprazole]
- IC50 (human CYP1A2 [1]): 14.9 ± 0.97 µM
- IC50 (human CYP2C9 [2]): 13.9 ± 1.59 µM
- IC50 (human CYP2C19 [5]): 8.96 ± 4.72 µM

Compound: O=C(NOCC1CC1)c1ccc(F)c(F)c1Nc1ccc(I)cc1Cl [PD-184352]
- IC50 (human CYP1A2 [1]): 14.4 ± 0.97 µM
- IC50 (human CYP2C9 [2]): 0.68 ± 0.17 µM
- IC50 (human CYP2C19 [5]): 0.39 ± 0.13 µM

Compound: CCC(=O)c1ccc(O)cc1 [Paroxypropione]
- CYP3A4 AC50 (half-maximal activity concentration) (CYP3A4): Inactive
- AC50 (human CYP2C9 [2]; [8]): 15.6 µM
- CYP1A2 AC50 (half-maximal activity concentration) (human CYP1A2 [4]): Inconclusive inhibitor
- CYP2C19 AC50 (half-maximal activity concentration) (human CYP2C19 [3]): Inactive
- CYP2D6 AC50 (half-maximal activity concentration) (human CYP2D6): Inactive

Compound: CCCOC(=O)c1cncn1C(C)c1ccccc1 (stereo not shown) [Propoxate]
- IC50 (human CYP1A2 [1]; [9]): 18.9 µM
- IC50 (human CYP2C9 [2]; [10]): 13.3 µM
- IC50 (human CYP2C19 [5]; [11]): 3.09 µM

Compound: Cc1cc(C)nc(NS(=O)(=O)c2ccc(N)cc2)n1 [Sulfamethazine]
- CYP3A4 AC50 (half-maximal activity concentration) (CYP3A4): Inactive
- AC50 (human CYP2C9 [2]; [8]): 54.8 µM
- CYP1A2 AC50 (half-maximal activity concentration) (human CYP1A2 [4]): Inconclusive inhibitor
- CYP2C19 AC50 (half-maximal activity concentration) (human CYP2C19 [3]): Inactive
- CYP2D6 AC50 (half-maximal activity concentration) (human CYP2D6): Inactive

Compound: O=C1OC(OC(=O)c2cccnc2Nc2cccc(C(F)(F)F)c2)c2ccccc21 (stereo not shown) [Talniflumate]
- AC50 (human CYP1A2 [1]): 10 ± 5.3 µM
- AC50 (human CYP2C9 [2]): 5.56 ± 2.56 µM

Compound: CCCCCNC(=N)N/N=C/c1c[nH]c2ccc(OC)cc12 [Tegaserod maleate]
- AC50 (human CYP1A2 [1]): 4.12 ± 0.93 µM
- AC50 (human CYP2C9 [2]): 33.3 ± 14 µM

Compound: CN(C)C(=S)SC(=S)N(C)C [Tetramethylthiuram monosulfide]
- AC50 (human CYP1A2 [1]; [7]): 41.9 µM
- AC50 (human CYP2C9 [2]; [8]): 24.3 µM
- AC50 (human CYP2C19 [5]; CYP2C19 AC50 (half-maximal activity concentration)): 22.8 µM

Compound: Cc1c(Cl)cccc1Nc1ccccc1C(=O)O [Tolfenamic acid]
- AC50 (human CYP1A2 [1]; [7]): 34.8 µM
- AC50 (human CYP2C9 [2]; [8]): 21 µM

Compound: Clc1ccc(C(c2ccc(Cl)cc2)C(Cl)(Cl)Cl)cc1 [p,p'-DDT]
- IC50 (human CYP1A2 [1]; [9]): 9.36 µM
- IC50 (human CYP2C9 [2]; [10]): 4.33 µM
- CYP2C9 Efficacy (in parenthesis) (human CYP2C9 [6]): 4.33 ± 1.82 (-100 ± 9) %
- CYP1A2 Efficacy (in parenthesis) (human CYP1A2 [4]; human): 9.36 ± 3.19 (-74 ± 16) %
- IC50 (human CYP2C19 [5]; [11]): 0.04 µM
- CYP2C19 Efficacy (in parenthesis) (human CYP2C19 [3]; human): 0.04 ± 0.02 (-132 ± 4) %

Compound: Fc1ccc([C@@H]2CCNC[C@H]2COc2ccc3c(c2)OCO3)cc1 [paroxetine, reference compound]
- IC50 (human CYP1A2 [1]; [9]): 15.2 µM

Compound: c1ccc2[nH]c(-c3cscn3)nc2c1 [thiabendazole, reference compound]
- IC50 (human CYP1A2 [1]; IC50 CYP1A2 assay): 2.1 µM

Compound: CC(c1cc2ccccc2s1)N(O)C(N)=O (stereo not shown) [zileuton, reference compound]
- IC50 (human CYP1A2 [1]): 5.3 µM
